Experimental data as given in US20070026065A1, “Solid, modified-release pharmaceutical dosage forms which can be administered orally” (Bayer HealthCare AG, priority 2004, published 2007).
≈ marks a conversion by molar mass, not a printed value.

Experiments:
Solubility in water = format: physicochemical; settings: 25° C.
Source text: (§1) Accordingly, for the desired once a day administration, specific pharmaceutical formulations with modified release of the active ingredient (I), taking account of its physicochemical and biological properties, are required.

Plasma half-life = format: in vivo
Source text: as §1

- solubility (Solubility in water): ~7 µg/mL (≈ 16.1 µM)
- half-life (Plasma half-life): ~7 h
SMILES: O=C(NC[C@H]1CN(c2ccc(N3CCOCC3=O)cc2)C(=O)O1)c1ccc(Cl)s1 [active ingredient (I), 5-Chloro-N-({(5S)-2-oxo-3-[4-(3-oxo-4-morpholinyl)phenyl]-1,3-oxazolidin-5-yl}methyl)-2-thiophenecarboxamide]
